The results in this text go back to US9290529B2, “Carbonic anhydrase inhibitors and method of their production” (USTAV ORGANICKE CHEMIE A BIOCHEMIE AKADEMIE VED CESKE …, priority 2011, dated 2016).

The subject of one data set is CEM-DNR. As to the kind of experiment: MTT cytotoxicity assay, CEM-DNR. It is filed as cell-based, human. The following applies: 72 h. An excerpt:
(§1) One of the parameters used as the basis for colorimetric assays is the metabolic activity of viable cells. For example, a microtiter assay which uses the tetrazolium salt MTT is now widely used to quantitate cell proliferation and cytotoxicity (Hájduch et al., Cytotechnology, 19, 1996, 243-245). For instance, this assay is used in drug screening programs and in chemosensitivity testing. Because tetrazolium salts are cleaved only by metabolically active cells, these assays exclusively detect viable cells. In the case of the MTT assay, yellow soluble tetrazolium salt is reduced to a coloured water-insoluble formazan salt. After it is solubilized, the formazan formed can easily and rapidly be quantified in a conventional ELISA plate reader at 570 nm (maximum absorbancy). The quantity of reduced formazan corresponds to the number of vital cells in the culture.
(§2) All cells were purchased from the […] (ATCC), unless otherwise indicated: the CEM line are highly chemosensitive T-lymphoblastic leukemia cells, K562 cells were derived from patient with […] with bcr-abl translocation, A549 line is lung adenocarcinoma, HCT116 is colorectal tumor cell line and its p53 gene knock-down counterpart (HCT116p53−) is a model of human cancers with p53 mutation frequently associated with poor prognosis. The daunorubicin resistant subline of CEM cells (CEM-DNR bulk) and paclitaxel resistant subline K562-tax were selected in our laboratory by the cultivation of maternal cell lines in increasing concentrations of daunorubicine or paclitaxel, respectively (Noskova et al., Neoplasma 49, 2002, 418). The CEM-DNR bulk cells overexpress MRP-1 protein, while K562-tax cells overexpress P-glycoprotein, both proteins belong to family of ABC transporters and are involved in primary and/or acquired multidrug resistance phenomenon (Noskova et al., Neoplasma 49, 2002, 418). The cells were maintained in Nunc/Corning 80 cm^2 plastic tissue culture flasks and cultured in cell culture medium (DMEM/RPMI 1640 with 5 g/l glucose, 2 mM glutamine, 100 U/ml penicillin, 100 μg/ml streptomycin, 10% fetal calf serum, and NaHCO3).
(§3) This assay was performed according to Hajduch et al., Anti-Cancer Drugs 10, 1997, 1007. Cell suspensions were prepared and diluted according to the particular cell type and the expected target cell density (2 500-30 000 cells/well based on cell growth characteristics). Cells were added by pipette (80 μl) into 96-well microtiter plates. Inoculates were allowed a pre-incubation period of 24 h at 37° C. and 5% CO2 for stabilization. Four-fold dilutions, in 20-μl aliquots, of the intended test concentration were added to the microtiter plate wells at time zero. All test compound concentrations were examined in duplicate. Incubation of the cells with the test compounds lasted for 72 h at 37° C., in a 5% CO2 atmosphere at 100% humidity. At the end of the incubation period, the cells were assayed using MTT. Aliquots (10 μl) of the MTT stock solution were pipetted into each well and incubated for a further 1-4 h. After this incubation period the formazan produced was dissolved by the addition of 100 μl/well of 10% aq SDS (pH=5.5), followed by a further incubation at 37° C. overnight. The optical density (OD) was measured at 540 nm with a Labsystem iEMS Reader MF. Tumor cell survival (TCS) was calculated using the following equation: TCS=(ODdrug-exposed well/mean ODcontrol wells)×100%. The TCS50 value, the drug concentration lethal to 50% of the tumor cells, was calculated from appropriate dose-response curves.

The next data set deals with MRC-5. Briefly: MTT cytotoxicity assay, MRC-5. It is filed as cell-based. The settings on record: MRC-5, MTT, 72 h.
Source text: as §1, §3

The test system of a further data set is K562. Briefly: MTT cytotoxicity assay, K562. It is filed as cell-based, human. The following applies: 72 h.
Source text: as §1, §2, §3

Another data set relates to K562-TAX. Briefly: MTT cytotoxicity assay, K562-TAX. It is filed as cell-based, human. The following applies: 72 h.
Source text: as §1, §2, §3

Data set [1] deals with T1, human carbonic anhydrase II (hCA II) (Homo sapiens, UniProt P00918).
T1 construct: purchased Sigma Aldrich C6165
As to the kind of experiment: Colorimetric carbonic anhydrase inhibition assay (CO2 hydration, phenol red), hCA II. The following applies: 0° C., HEPES pH 7.0. It is filed as biochemical. The protocol:
The compounds were assayed for inhibition activity of two isoforms of human carbonic anhydrase: hCA II and hCA IX. The human carbonic anhydrase II (HCA II) was purchased from Sigma Aldrich (Cat. No. C6165) in the form of lyophilized protein, which was dissolved before use in 10 mmol·l^−1 HEPES pH 7.0 to a concentration of 300 μmol·l^−1 and further diluted as required. Human carbonic anhydrase IX (HCA IX) was prepared by recombinant expression system in insect (Drosophila expression system, Invitrogen). […] This protein was further purified from media by chelating chromatography carrier His-Select Nickel Affinity Gel (Sigma, Cat No. P6611) and gel chromatography (Superdex 200 GL 30/300, GE Healthcare) according to the manufacturer's recommendations.
The principle of the method is based on measuring the rate of acidification of the solution that is observed as the color-shift of the acid-base-indicator (fenol red). The reaction was conducted in a glass tube placed in an ice bath (0° C., all stock solutions and enzymes were kept at the same temperature). […] This was followed by a CO2 saturation (stream flow 50 ml/min.) using a needle (18 G) up to color transition of fenol-red from red to yellow (typically 60 seconds by default). […] End point of reaction was determined by visual comparison with reference tube containing acid-base indicator (0.01% (wt./vol.) Fenol-red) and the pH adjusted to 7.0. […] Molar activity was calculated according to the formula:
[formula] where tB is the time of negative control without enzyme and tS is the time measured with an enzyme sample (and inhibitor), nprot is the number of moles of protein present in the sample. The value of IC50 for the inhibitor concentration corresponds inhibitor contraction required to decrease the specific activity to half of the value of non-inhibited enzyme. Selectivity towards CA IX inhibitor was calculated as the ratio of IC50 values for inhibition of HCA II against the value of IC50 for inhibition CA IX enzyme.

In another data set the test system is NMRI female mice. As to the kind of experiment: Dose finding study (MTD, DLT), single intraperitoneal dose. The following applies: for dose limiting toxicity (DLT): mouse, in vivo, ip; for maximum tolerated dose (MTD): single dose, intraperitoneally, NMRI female mice. On the procedure:
Both compounds were dissolved in 10% dimethylsulfoxide/water (vol/vol) at stock concentration of 10 mg/ml and applied intraperitoneally to NMRI female mice (minimum 3/group) in ascending doses until the MTD was reached. Animals were housed in specific pathogen free conditions, water and food ad libitum.

The nature of data set [2]: Orientational pharmacokinetics, serum concentrations by HPLC. The settings on record: intraperitoneally at the MTD, female NMRI mice.
Description: The ability of compounds to achieve therapeutically relevant concentrations in biological fluids was tested in orientational pharmacokinetics experiment. […] The blood was collected on ice and processed for serum separation within 60 minutes after sampling. Serum was evaporated to dryness on a device ThermoScientific SPD SpeedVac (72 h, 50° C.) until analyzed. Residues were precipitated by the 225 μl of acetonitrile with an addition of 25 μl of 10% SDS (w/w in water), then vortexed for 5 min and centrifuged 5 min at 14000 RPM at a room temperature. Aliquot of the supernatant was transferred into a 250 μl autosampler vial. […] Sensitivity range 0.2 or 0.02 A.U.F.S. (Absorbance Units Full Scale). An Ion-pair reverse phase chromatographic method with an isocratic elution 300 μl/min was used. Sample injection: 20 μl.

With “1-methylenesulfamide-1,7-dicarba-closo-dodecaborane [CB-19]”, the half-maximal inhibitory concentration (IC50) in the data set with CEM-DNR was 100 ± 0.1 µM; with MRC-5, at least 100 µM; in the data set with K562, 81 ± 3.3 µM; in the data set on K562-TAX, 86.7 ± 12.7 µM; in data set [1], 8.9 µM.

In the case of “1-methylenesulfamide-3,3′-commo-bis(1,2-dicarba-3-cobalta(III)-closo-dodecabor)ate (1-) [CB-5]”, the half-inhibitory concentration (IC50) with MRC-5 is 93.2 ± 7 µM; in the data set on K562-TAX, 66.4 ± 8 µM; in data set [1] it was 3.7 µM.

As for “1-methylenesulfamide-9-phenyl-1,2-dicarba-closo-dodecaborane and 1-methylene-sulfamide-12-phenyl-1,2-dicarba-closo-dodecaborane [CB-8]”, the IC50 was 96.8 ± 3.3 µM with CEM-DNR; at least 100 µM with MRC-5; 71.3 ± 4.2 µM in the data set on K562; 79.6 ± 10.9 µM in the data set with K562-TAX; 2.44 µM in data set [1].

With “1-methylensulfamide-1,2-dicarba-closo-dodekaborane [CB-1]”, the IC50 in the data set with CEM-DNR turned out to be 79 ± 8.9 µM; in the data set on MRC-5, 22.1 ± 1.1 µM; in the data set with K562, 60.1 ± 3 µM; with K562-TAX, 81.5 ± 11 µM; in data set [1] it was 2.4 µM.

On to “1-sulfamide-closo-1-carbadodecaborate (1-) [CB-3]”, for which the IC50 with MRC-5, with K562 and with K562-TAX was at least 100 µM in each case.

Consider “7-methylensulfamide-8-phenyl-(7,8-nido-dikarbaundekabor)ate (1-) [CB-6]”, for which the 50% inhibitory concentration (IC50) in the data set on CEM-DNR amounted to 98.1 ± 3 µM; with K562, 27.5 ± 7.1 µM; with K562-TAX, 56.9 ± 15.1 µM; in data set [1], 39.1 µM.

With “7-methylensulfamide-(7,8-nido-dicarbaundekaborate) (1-) [CB-2]”, the IC50 is 96.7 ± 3.8 µM with CEM-DNR; at least 100 µM in the data set with MRC-5; at least 100 µM in the data set with K562; 99.9 ± 0.2 µM with K562-TAX; 4.6 µM in data set [1].

“8-butyloxysulfamide-3,3′-commo-bis(decahydro-1,2-dicarba-3-cobalta(III)-closo-dodekabor)ate (1-) [CB-16]”: the “dose limiting toxicity (DLT)” value in the data set on NMRI female mice was “somnolence, apathy and local irritation”. Moreover, the “maximum tolerated dose (MTD)” value with NMRI female mice is 166 mg/kg. For the same substance, the IC50 is 95.1 ± 7.9 µM with CEM-DNR, at least 100 µM with MRC-5, 95.8 ± 4.4 µM in the data set on K562-TAX and 0.68 µM in data set [1]. The T1/2 in data set [2] stood at 5 h. Also, in data set [2], the “pharmacokinetics under in vivo conditions” value was “linear pharmacokinetics”.

In the case of “8-diethyleneoxysulfamide-3,3′-commo-bis(decahydro-1,2-dicarba-3-cobalta(III)-closo-dodekabor)ate (1-) [CB-17]”, the IC50 in the data set with CEM-DNR was at least 100 µM; with MRC-5, at least 100 µM; in the data set on K562, at least 100 µM; in the data set on K562-TAX it was at least 100 µM; in data set [1], 12 µM.

For the substance “8-ethylaminomethylsulfamide-8″-methoxy-3,3′-commo-bis(decahydro-1,2-dicarba-3-cobalta(III)-closo-dodecabor)ate (1-) [CB-15]”, the IC50 was 47.9 ± 7.6 µM with CEM-DNR; 27 ± 4.8 µM in the data set with MRC-5; 17.7 ± 0.7 µM with K562; 16.6 ± 1.2 µM in the data set with K562-TAX; 14 µM in data set [1].

Regarding “8-methylensulfamide-8″-methoxy-3,3′-commo-bis(1,2-dicarba-3-cobalta(III)-closo-dodecabor)ate (1-) [CB-4]”, the “dose limiting toxicity (DLT)” value with NMRI female mice was “somnolence, apathy and local irritation”. The “maximum tolerated dose (MTD)” value with NMRI female mice is 125 mg/kg. Further, the IC50 with CEM-DNR turned out to be 74.5 ± 2.8 µM; in the data set on MRC-5 it was 77.9 ± 1 µM; with K562, 74.3 ± 3.7 µM; in the data set on K562-TAX, 55.2 ± 4.7 µM; in data set [1], 5 µM. The T1/2 in data set [2] was 6.5 h. For the same substance, in data set [2], the “pharmacokinetics under in vivo conditions” value is recorded as “linear pharmacokinetics”.

Regarding “8-propylenesulfamide-7-phenyl-(7,8-nido-dicarbaundecabor)ate (1-) [CB-13]”, the half-inhibitory concentration (IC50) in the data set on CEM-DNR is 68 ± 1.6 µM; in the data set on MRC-5 it was 75.6 ± 1.5 µM; in the data set with K562, 71.8 ± 1.4 µM; in the data set with K562-TAX, 64.2 ± 4.5 µM; in data set [1], 4 µM.

With “9-sulfamide-9′-amine-2,2′-commo-bis(1,7,9-trikarba-2-ferra(II)-kloso-dodekabor)ane [CB-12]”, the half-inhibitory concentration (IC50) in the data set with CEM-DNR was at least 100 µM; with MRC-5 it was at least 100 µM; in the data set on K562, at least 100 µM; with K562-TAX, at least 100 µM; in data set [1], 14.9 µM.

“10-sulfamide-9′-amine-2,2′-commo-(1,7,10-tricarba-1′,7′,9′-tricarba-2-ferra (II)-closo-dodekabor)ane [CB-10]”: the IC50 is at least 100 µM with CEM-DNR, at least 100 µM in the data set with MRC-5, 73.6 ± 11.1 µM in the data set with K562-TAX and 67.9 µM in data set [1].

Consider “Di(methylenesulfamide)-1,7-dicarba-closo-dodecaborane [CB-20]”, for which the half-inhibitory concentration (IC50) in the data set on MRC-5 was at least 100 µM; in the data set with K562-TAX it was 96.3 ± 5.8 µM; in data set [1], 1.6 µM.
